Laboratory results published in US20250099420A1, “SMALL MOLECULE MODULATORS OF GPR139 COMPLEX” (University of Florida Research Foundation, Incorporated, priority 2022, published 2025).
pEC50: −log10 of the molar value. Read-outs that look alike come from different tables or passages of the source.

Columns and labels:
parental HEK cells = experiment: HEK parental Agonist Counterscreen Assay (non-transfected cells); type: cell-based; conditions: for Averaged Max % Response (±St. Dev.): activity relative to known control
Source text: The high control for the agonist counterscreen was Forskolin not acetylcholine.

GPR139 = biological target: T1, GPR139 (Homo sapiens, UniProt Q6DWJ6); experiment: GPR139 Agonist titration / agonist counterscreen assay (calcium detection, HEK-GPR139 cells); type: cell-based; parameters: expressed in transfected cells; host or cells: HEK Aequorin cells, Maxcyte transient transfection; conditions: GPR139 Agonist Activity; for Averaged Max % Response (±St. Dev.): activity relative to known control; for pEC50: read-out: EC50
T1 sequence (Q6DWJ6 1-353): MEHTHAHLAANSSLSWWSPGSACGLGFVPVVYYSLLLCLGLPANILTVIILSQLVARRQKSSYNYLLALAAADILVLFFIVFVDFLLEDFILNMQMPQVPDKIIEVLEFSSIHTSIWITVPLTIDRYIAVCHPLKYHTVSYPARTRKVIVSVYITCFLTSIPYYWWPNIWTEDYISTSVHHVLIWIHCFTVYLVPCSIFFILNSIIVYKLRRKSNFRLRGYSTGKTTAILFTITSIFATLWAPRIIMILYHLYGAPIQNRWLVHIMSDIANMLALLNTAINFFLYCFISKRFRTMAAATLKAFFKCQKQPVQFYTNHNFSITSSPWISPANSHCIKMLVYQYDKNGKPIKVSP
Description: GPR activity was assessed using a calcium detection assay. […] Negative control samples were treated with DMSO. […] Intracellular calcium was measured using Calcium 5.

[1] = Homo sapiens, HEK293, HEK Agonist Activity section of Table 4 (parental HEK counterscreen)
[2] = values printed in E-notation without unit
[3] = HEK Agonist Activity section of Table 4 (parental HEK counterscreen)
[4] = Homo sapiens, HEK293, HEK Agonist Activity, parental non-transfected HEK cells

Row | SMILES | Lipophilic Efficiency (logD) (parental HEK cells; HEK Agonist Activity section) | Lipophilic Efficiency (logP) (parental HEK cells; HEK Agonist Activity section) | Averaged Max % Response (±St. Dev.) (parental HEK cells; HEK Agonist Activity section) [%] | pEC50 (parental HEK cells; [1]) | Averaged Max % Response (±St. Dev.) (GPR139) [%] | Lipophilic Efficiency (logD) (GPR139; based on logD) | Lipophilic Efficiency (logP) (GPR139; based on logP) | Hill Slope (GPR139; fitted dose-response curve) | Efficiency Ligand (GPR139; ligand efficiency) | pEC50 (GPR139; [2]) | pEC50 (parental HEK cells; [3]) | Efficiency Ligand (GPR139) | Hill Slope (GPR139) | Lipophilic Efficiency (logD) (GPR139) | Lipophilic Efficiency (logP) (GPR139) | pEC50 (GPR139; HEK-GPR139 cells) | Lipophilic Efficiency (logD) (parental HEK cells; HEK Agonist Activity) | Lipophilic Efficiency (logP) (parental HEK cells; HEK Agonist Activity) | Averaged Max % Response (±St. Dev.) (parental HEK cells; HEK Agonist Activity) [%] | pEC50 (parental HEK cells; [4])
1 | COc1ccccc1NC(=O)NNC(=O)CN1C(=O)COc2ccccc21 [SR-01000336035] | 4.40 | 4.40 | −5.99 ± 6.97 | < 4.85 | 100.35 ± 10.43 | 6.65 | 6.65 | 0.39 | 0.37 | 7.10 | – | – | – | – | – | – | – | – | – | –
2 | CCCc1nn(CC(=O)NCc2nc3ccccc3n2C)c(=O)c2cc3ccsc3n12 [SR-01000336681] | 2.37 | 2.37 | 4.99 ± 7.59 | – | 81.02 ± 6.69 | – | – | – | – | – | < 4.85 | 0.26 | 1.92 | 3.33 | 3.33 | 5.80 | – | – | – | –
3 | Cc1ccc(C(=O)NNC(=O)CSc2nnc(Cn3cnc4ccccc43)o2)cc1 [SR-01000337370] | 3.15 | 3.14 | 23.00 ± 5.22 | – | 96.26 ± 15.22 | 5.62 | 5.61 | 0.87 | 0.34 | 7.32 | < 4.85 | – | – | – | – | – | – | – | – | –
4 | COc1ccc(-c2nnn(CC(=O)NCCc3c[nH]c4ccccc34)n2)cc1OC [SR-01000339494] | – | – | – | – | 107.79 ± 9.70 | 5.30 | 5.30 | 0.87 | 0.38 | – | – | – | – | – | – | – | 1.97 | 1.97 | 13.92 ± 7.54 | < 4.85
5 | COc1ccccc1C(=O)NNC(=O)C(C)Oc1ccc(Cl)cc1Cl (centres unmarked) [SR-01000356020] | – | – | – | – | 106.05 ± 9.09 | 4.30 | 4.27 | 0.91 | 0.43 | 7.64 | – | – | – | – | – | – | 1.52 | 1.48 | 1.37 ± 3.30 | < 4.85
6 | COc1cccc(C(=O)NNC(=O)C(C)Oc2ccc(Cl)cc2Cl)c1 (centres unmarked) [SR-01000356497] | – | – | – | – | 126.50 ± 10.38 | 4.97 | 4.94 | 0.32 | 0.47 | 8.31 | – | – | – | – | – | – | 1.52 | 1.48 | 2.54 ± 3.30 | < 4.85
7 | Cc1[nH]c(=O)[nH]c(=O)c1/C=N\NC(=O)CCc1ccc(OC(C)C)cc1 [SR-01000357697] | 3.76 | 3.76 | −2.06 ± 7.71 | < 4.85 | 87.67 ± 13.61 | – | – | – | – | – | – | 0.31 | 1.75 | 4.74 | 4.74 | – | – | – | – | –
8 | COc1ccc(C(=O)NNC(=O)COc2ccc(Cl)cc2Cl)cc1OC [SR-01000357814] | 2.25 | 2.21 | 7.60 ± 11.41 | < 4.85 | 103.91 ± 10.30 | 4.04 | 3.99 | 0.77 | 0.36 | 6.64 | – | – | – | – | – | – | – | – | – | –
9 | COc1cc(OC)cc(C(=O)NNC(=O)C(C)Oc2ccc(Cl)cc2Cl)c1 (centres unmarked) [SR-01000358013] | – | – | – | – | 146.26 ± 17.42 | 4.56 | 4.52 | 0.21 | 0.40 | – | – | – | – | – | – | – | 1.68 | 1.64 | 22.28 ± 14.14 | < 4.85
10 | COc1cc(OC)cc(C(=O)NNC(=O)COc2cc(C)c(Cl)c(C)c2)c1 [SR-01000358286] | 1.79 | 1.78 | 17.27 ± 10.49 | – | 88.73 ± 9.49 | – | – | – | – | – | < 4.85 | 0.31 | 1.77 | 2.95 | 2.95 | 6.01 | – | – | – | –
11 | CC(CCC(=O)C12CC3CC(CC(C3)C1)C2)CCc1ccc2ccccc2c1 (centres unmarked) [SR-01000359546] | 1.36 | 1.36 | 3.46 ± 3.80 | < 4.85 | 116.44 ± 14.37 | – | – | – | – | – | – | 0.30 | 0.53 | 2.60 | 2.60 | – | – | – | – | –
12 | COc1cc(OC)cc(C(=O)NNC(=O)CCc2ccccc2)c1 [SR-01000359572] | 2.65 | 2.65 | 6.12 ± 4.61 | < 4.85 | 100.90 ± 10.01 | – | – | – | – | – | – | 0.37 | 0.98 | 4.18 | 4.18 | 6.38 | – | – | – | –
13 | CCCCCCC(=O)NNC(=O)c1c(O)c2ccccc2n(CCC)c1=O [SR-01000360839] | 4.41 | 2.59 | 0.18 ± 6.80 | – | 57.17 ± 6.17 | – | – | – | – | – | < 4.85 | 0.28 | 1.91 | 4.95 | 3.13 | 5.39 | – | – | – | –
14 | CC(C)C(=O)NNC(=O)C(C)Oc1ccc(Cl)cc1Cl (centres unmarked) [SR-01000361172] | 1.97 | 1.93 | 2.50 ± 11.74 | < 4.85 | 91.50 ± 11.81 | – | – | – | – | – | – | 0.40 | 1.48 | 2.81 | 2.78 | 5.70 | – | – | – | –
15 | COc1ccc(CC(=O)NNC(=O)C(C)Oc2ccc(Cl)cc2Cl)cc1 (centres unmarked) [SR-01000361779] | 1.53 | 1.50 | 9.57 ± 4.06 | < 4.85 | 89.14 ± 2.93 | 3.38 | 3.35 | 0.85 | 0.36 | 6.70 | – | – | – | – | – | – | – | – | – | –
